From the NIST ThermoML archive (doi:10.1021/je050484k)
“And” between values parts separate entries of the source, which are not always exact repeats. Identical values can stand only once. ± gives the expanded uncertainty stated by the source.

Tests used:
[1] = for surface tension liquid-gas: Pendant drop shape; for mass density: 101 kPa, Liquid
[2] = xn = mol fraction of the nth substance listed; conditions: for surface tension liquid-gas: Pendant drop shape; for mass density: 101 kPa, Liquid

Cc1ccc(C)c(C)c1 [1,2,4-trimethylbenzene]
[1]
Conditions	mass density [kg/m3]	surface tension liquid-gas [mN/m]
298.15 K	871.65 ± 0.48	29.29 ± 0.33
313.15 K	859.54 ± 0.49	27.67 ± 0.31

Cc1ccc(C)c(C)c1 [1,2,4-trimethylbenzene] + COCCO
[2]
Conditions	mass density [kg/m3]	surface tension liquid-gas [mN/m]
298.15 K, x2 = 0	871.65 ± 0.48	29.29 ± 0.33
298.15 K, x2 = 0.0507	873.14 ± 0.47	–
298.15 K, x2 = 0.0976	875.08 ± 0.46	29.36 ± 0.32
298.15 K, x2 = 0.154	877.75 ± 0.45	–
298.15 K, x2 = 0.2031	880.31 ± 0.44	29.36 ± 0.32
298.15 K, x2 = 0.2556	883.31 ± 0.43	–
298.15 K, x2 = 0.3021	886.13 ± 0.42	29.35 ± 0.32
298.15 K, x2 = 0.3482	889.1 ± 0.41	–
298.15 K, x2 = 0.3999	892.67 ± 0.4	29.44 ± 0.32
298.15 K, x2 = 0.453	896.6 ± 0.39	–
298.15 K, x2 = 0.5015	900.39 ± 0.38	29.57 ± 0.32
298.15 K, x2 = 0.5513	904.61 ± 0.37	–
298.15 K, x2 = 0.6035	909.35 ± 0.35	29.78 ± 0.32
298.15 K, x2 = 0.6526	914.1 ± 0.34	–
298.15 K, x2 = 0.7033	919.38 ± 0.33	30.03 ± 0.32
298.15 K, x2 = 0.7534	924.98 ± 0.32	–
298.15 K, x2 = 0.7974	930.26 ± 0.31	30.34 ± 0.32
298.15 K, x2 = 0.8455	936.54 ± 0.29	–
298.15 K, x2 = 0.9014	944.31 ± 0.28	30.61 ± 0.32
298.15 K, x2 = 0.9507	951.9 ± 0.27	–
313.15 K, x2 = 0	859.54 ± 0.49	27.67 ± 0.31
313.15 K, x2 = 0.0494	860.68 ± 0.48	–
313.15 K, x2 = 0.1019	862.75 ± 0.47	27.78 ± 0.31
313.15 K, x2 = 0.15	864.92 ± 0.46	–
313.15 K, x2 = 0.2002	867.4 ± 0.45	27.72 ± 0.31
313.15 K, x2 = 0.2486	869.95 ± 0.44	–
313.15 K, x2 = 0.3004	873 ± 0.43	27.72 ± 0.31
313.15 K, x2 = 0.3507	876.1 ± 0.42	–
313.15 K, x2 = 0.4007	879.45 ± 0.41	27.79 ± 0.3
313.15 K, x2 = 0.4502	883.02 ± 0.4	–
313.15 K, x2 = 0.4991	886.8 ± 0.39	27.84 ± 0.3
313.15 K, x2 = 0.5513	891.2 ± 0.38	–
313.15 K, x2 = 0.6006	895.56 ± 0.37	28.03 ± 0.3
313.15 K, x2 = 0.653	900.55 ± 0.36	–
313.15 K, x2 = 0.7002	905.44 ± 0.35	28.29 ± 0.3
313.15 K, x2 = 0.7504	910.91 ± 0.33	–
313.15 K, x2 = 0.7999	916.79 ± 0.32	28.59 ± 0.3
313.15 K, x2 = 0.8496	923.25 ± 0.31	–
313.15 K, x2 = 0.9007	930.3 ± 0.29	28.96 ± 0.31
313.15 K, x2 = 0.9504	937.74 ± 0.28	–

Cc1ccc(C)c(C)c1 [1,2,4-trimethylbenzene] + COCCOC
[2]
Conditions	mass density [kg/m3]	surface tension liquid-gas [mN/m]
298.15 K, x2 = 0	871.65 ± 0.48	29.29 ± 0.33
298.15 K, x2 = 0.0488	871.13 ± 0.47	–
298.15 K, x2 = 0.103	870.57 ± 0.46	28.71 ± 0.32
298.15 K, x2 = 0.1497	870.09 ± 0.45	–
298.15 K, x2 = 0.205	869.53 ± 0.44	28.11 ± 0.31
298.15 K, x2 = 0.2496	869.07 ± 0.44	–
298.15 K, x2 = 0.3006	868.54 ± 0.43	27.54 ± 0.3
298.15 K, x2 = 0.3515	868.02 ± 0.42	–
298.15 K, x2 = 0.398	867.54 ± 0.41	26.97 ± 0.3
298.15 K, x2 = 0.4492	867.02 ± 0.41	–
298.15 K, x2 = 0.5005	866.49 ± 0.4	26.43 ± 0.29
298.15 K, x2 = 0.5491	865.99 ± 0.39	–
298.15 K, x2 = 0.601	865.46 ± 0.39	25.9 ± 0.28
298.15 K, x2 = 0.649	864.97 ± 0.38	–
298.15 K, x2 = 0.6979	864.48 ± 0.38	25.42 ± 0.28
298.15 K, x2 = 0.7506	863.94 ± 0.37	–
298.15 K, x2 = 0.7977	863.46 ± 0.37	24.92 ± 0.27
298.15 K, x2 = 0.8501	862.93 ± 0.36	–
298.15 K, x2 = 0.9018	862.41 ± 0.36	24.41 ± 0.27
298.15 K, x2 = 0.9463	861.95 ± 0.36	–
313.15 K, x2 = 0	859.54 ± 0.49	27.67 ± 0.31
313.15 K, x2 = 0.0482	858.88 ± 0.48	–
313.15 K, x2 = 0.1004	858.17 ± 0.47	–
313.15 K, x2 = 0.1019	–	27.02 ± 0.3
313.15 K, x2 = 0.1494	857.51 ± 0.46	–
313.15 K, x2 = 0.1999	856.82 ± 0.46	–
313.15 K, x2 = 0.2002	–	26.43 ± 0.3
313.15 K, x2 = 0.2495	856.16 ± 0.45	–
313.15 K, x2 = 0.2999	855.48 ± 0.44	–
313.15 K, x2 = 0.3004	–	25.85 ± 0.29
313.15 K, x2 = 0.353	854.74 ± 0.43	–
313.15 K, x2 = 0.4007	–	25.26 ± 0.28
313.15 K, x2 = 0.4015	854.06 ± 0.43	–
313.15 K, x2 = 0.4557	853.31 ± 0.42	–
313.15 K, x2 = 0.4991	–	24.73 ± 0.28
313.15 K, x2 = 0.4996	852.68 ± 0.42	–
313.15 K, x2 = 0.5499	851.99 ± 0.41	–
313.15 K, x2 = 0.5989	851.29 ± 0.41	–
313.15 K, x2 = 0.6006	–	24.23 ± 0.27
313.15 K, x2 = 0.6513	850.53 ± 0.4	–
313.15 K, x2 = 0.7002	–	23.77 ± 0.27
313.15 K, x2 = 0.7005	849.81 ± 0.4	–
313.15 K, x2 = 0.7508	849.12 ± 0.39	–
313.15 K, x2 = 0.7999	–	23.32 ± 0.26
313.15 K, x2 = 0.8	848.38 ± 0.39	–
313.15 K, x2 = 0.8503	847.65 ± 0.38	–
313.15 K, x2 = 0.9007	–	22.94 ± 0.26
313.15 K, x2 = 0.9008	846.87 ± 0.38	–
313.15 K, x2 = 0.9493	846.16 ± 0.38	–

COCCOC [1,2-dimethoxyethane]
[1]
Conditions	mass density	surface tension liquid-gas [mN/m]
298.15 K	861.38 ± 0.35 kg/m3	23.93 ± 0.26
313.15 K	845.31 ± 0.38 kg/m3 and 845.28 ± 0.38 kg/m3	22.51 ± 0.25
